Data on 4 compounds can be found in patent US20250145637A1, “SULFONAMIDE DERIVATIVE, PREPARATION METHOD THEREFOR AND MEDICAL USE THEREOF” (Jiangsu Hengrui Pharmaceuticals Co. Ltd., priority 2021, published 2025).

The structures appear in SMILES notation.

The nature of data set [1]: Pharmacokinetic evaluation in SD rats. It counts as in vivo. As to conditions: both sexes, rat, plasma, po, i.g., 2.0 mg/kg; for Vd/F: read-out: Apparent distribution volume Vz/F; for AUC(0-t): read-out: Area under curve AUC0-t; for CL/F: read-out: Clearance rate CL/F; for half-life: read-out: Half-life T½ (converted); for Cmax: read-out: Plasma concentration Cmax. The procedure:
Test Example 5: Pharmacokinetic Evaluation
SD rats were used as test animals. After intragastric (i.g.) administration of the compounds of the present disclosure to SD rats, the plasma concentrations at different time points were measured by the LC/MS/MS method. The pharmacokinetic behavior of the compounds of the present disclosure in SD rats was studied, and their pharmacokinetic profiles were evaluated.
Compound 2, compound 7, compound 21, and compound 23.
16 SD rats, of which half were male and half female, were evenly divided into 4 groups. The rats were provided by Vital River Laboratory Animal Technology Co., Ltd. The rats were fasted overnight and intragastrically administered the compounds.
(§1) 2.3. Compound Solution Preparation
A certain amount of test compound was weighed out and dissolved in 5% DMSO+5% tween 80+90% normal saline to prepare a 0.2 mg/mL colorless clear solution.
The dose administered was 2.0 mg/kg, and the volume was 10.0 mL/kg.
0.1 mL blood samples were collected from the orbit before the administration and 0.25 h, 0.5 h, 1.0 h, 2.0 h, 4.0 h, 6.0 h, 8.0 h, 11.0 h and 24.0 h post-dose. The blood samples were placed into EDTA-K2 anticoagulation tubes and centrifuged at 10,000 rpm for 1 min (4° C.), and plasma was separated within 1 h and stored at −20° C. before analysis. The process from the blood collection to the centrifugation was performed in an ice bath. Access to food was given 2 h post-dose.
Measurement of plasma concentrations in SD rats after compounds were administered in different concentrations: 25 μL samples of the SD rat plasma collected at various time points post-dose were taken, and to each of the samples was added 25 μL of camptothecin (an internal standard for compound 2, 100 ng/mL) or 50 μL of tolbutamide (an internal standard for compound 7, 100 ng/mL) or 50 μL of verapamil (an internal standard for compounds 21 and 23, 100 ng/mL). Protein was precipitated with 200 μL of acetonitrile, and after 5 min of vortexing, the mixtures were centrifuged at 3700 rpm for 10 min. 120 µL of supernatant was taken and vortexed with 30 μL of water for 5 min, and a 5 μL sample was taken for LC/MS/MS analysis.

Data set [2] in a line: Pharmacokinetic evaluation in C57 mice. The note with it: for Vd / AUC(0-t) / half-life / Cmax / bioavailability / CL/F: both sexes, mouse, plasma; for Vd: read-out: Apparent distribution volume Vss; for AUC(0-t): read-out: Area under curve AUC0-t; for half-life: read-out: Half-life T½ (converted); for Cmax: read-out: Plasma concentration Cmax; for bioavailability: oral, i.g. 2.0 mg/kg vs i.v. 1.0 mg/kg, read-out: Bioavailability F (%); for CL/F: read-out: Clearance rate CL/F; for Clearance rate CL/F: i.v. It counts as in vivo. The procedure:
C57 mice were used as test animals. After intragastric (i.g.)/intravenous (i.v.) administration of the compounds of the present disclosure to C57 mice, the plasma concentrations at different time points were measured by the LC/MS/MS method. The pharmacokinetic behavior of the compounds of the present disclosure in C57 mice was studied and their pharmacokinetic profiles were evaluated.
Compound 2 and compound 3.
36 C57 mice, of which half were male and half female, were evenly divided into 4 groups of 9, 3 mice per time point per group. The mice were provided by Vital River Laboratory Animal Technology Co., Ltd. The mice were intragastrically and intravenously administered the compounds.
as §1
A certain amount of test compound was weighed out and dissolved in 5% DMSO+5% tween 80+90% normal saline to prepare a 0.1 mg/mL colorless clear solution (for the intragastric administration groups) and a 0.1 mg/mL colorless clear solution (for the intravenous administration groups).
Intragastric administration groups: The dose was 2.0 mg/kg, and the volume was 0.2 mL/10 g.
Intravenous administration groups: The dose was 1.0 mg/kg, and the volume was 0.1 mL/10 g.
Intragastric administration groups: 0.1 mL blood samples were collected before the administration and 0.25 h, 0.5 h, 1.0 h, 2.0 h, 4.0 h, 6.0 h, 8.0 h, 11.0 h and 24.0 h post-dose. The blood samples were placed into EDTA-K2 anticoagulation tubes and centrifuged at 10,000 rpm for 1 min (4° C.), and plasma was separated within 1 h and stored at −80° C. before analysis. The process from the blood collection to the centrifugation was performed in an ice bath.
Intravenous administration groups: Blood samples were collected before administration and 5 min, 0.25 h, 0.5 h, 1.0 h, 2.0 h, 4.0 h, 8.0 h, 11.0 h and 24 h post-dose and were treated in the same way as those collected from the intragastric administration groups.
Measurement of plasma concentrations in C57 mice after compounds were administered in different concentrations: 25 μL samples of the C57 mouse plasma collected at various time points post-dose were taken, and to each of the samples was added 50 μL of diclofenac (an internal standard for compound 2, 100 ng/mL) or 25 μL of tolbutamide (an internal standard for compound 3, […], purchased from LGC Ltd., UK). Protein was precipitated with 200 μL of acetonitrile, and after 5 min of vortexing, the mixtures were centrifuged at 3700 rpm for 10 min. 120 μL of supernatant was taken and vortexed with 30 μL of water for 5 min, and a 5 μL sample was taken for LC/MS/MS analysis. 4. Pharmacokinetic parameters

In the case of `COc1cccc(OC)c1S(=O)(=O)Nc1noc2cc(Cn3cccn3)c3c(c12)OCCC3` [Compound 2, N-(5-((1H-pyrazol-1-yl)methyl)-3,4-dihydro-2H-chromeno[8,7-d]isoxazol-9-yl)-2,6-dimethoxybenzenesulfonamide], in data set [1], the Vd/F was found to be 0.202 L/kg, the AUC(0-t) was 43.3 µg·h/mL, the CL/F turned out to be 0.8 mL/min/kg and the half-life is 2.96 h. Further, the Cmax in data set [1] is 8210 ng/mL. In data set [2] (iv, 1.0 mg/kg), the Vd amounted to 0.093 L/kg, the AUC(0-t) is 188 µg·h/mL, the half-life is 18.4 h and the Cmax turned out to be 17600 ng/mL. Besides, the bioavailability in data set [2] was found to be 108%. In addition, in data set [2] (po, i.g., 2.0 mg/kg), the AUC(0-t) was 405 µg·h/mL, the CL/F is 0.033 mL/min/kg, the half-life was 29.7 h and the Cmax was 40100 ng/mL. Also, the “Clearance rate CL/F” value in data set [2] (1.0 mg/kg) is reported as 0.0504 mL/min/kg.
For `COc1ccccc1S(=O)(=O)Nc1noc2cc(Cn3cccn3)c3c(c12)OCCC3` [Compound 3, N-(5-((1H-pyrazol-1-yl)methyl)-3,4-dihydro-2H-chromeno[8,7-d]isoxazol-9-yl)-2-methoxybenzenesulfonamide], in data set [2] (iv, 1.0 mg/kg), the Vd is 0.102 L/kg, the AUC(0-t) was 209 µg·h/mL, the half-life was 49 h and the Cmax worked out at 22100 ng/mL. Also, the bioavailability in data set [2] is 94.1%. Also, in data set [2] (po, i.g., 2.0 mg/kg), the AUC(0-t) came out at 393 µg·h/mL, the CL/F was 0.0225 mL/min/kg, the half-life is 58.3 h and the Cmax worked out at 33000 ng/mL. In addition, in data set [2] (1.0 mg/kg), the “Clearance rate CL/F” value worked out at 0.0251 mL/min/kg.
`CCOc1cc(C)ccc1S(=O)(=O)Nc1noc2cc(Cn3cccn3)c3c(c12)OCCC3` [Compound 7, N-(5-((1H-pyrazol-1-yl)methyl)-3,4-dihydro-2H-chromeno[8,7-d]isoxazol-9-yl)-2-ethoxy-4-methylbenzenesulfonamide]: in data set [1], the Vd/F was determined as 0.25 L/kg, the AUC(0-t) turned out to be 81.3 µg·h/mL, the CL/F came out at 0.614 mL/min/kg and the half-life was 6.71 h. Moreover, the Cmax in data set [1] came out at 9200 ng/mL.
On to `COc1cccc(OC(F)(F)F)c1S(=O)(=O)Nc1noc2cc(Cn3cccn3)c3c(c12)OCC3` [Compound 23, N-(4-((1H-pyrazol-1-yl)methyl)-2,3-dihydrobenzofuro[7,6-d]isoxazol-8-yl)-2-methoxy-6-(trifluoromethoxy)benzenesulfonamide], for which, in data set [1], the Vd/F turned out to be 0.47 L/kg, the AUC(0-t) worked out at 61.2 µg·h/mL, the CL/F stood at 0.431 mL/min/kg and the half-life was 13.7 h. Besides, the Cmax in data set [1] worked out at 6240 ng/mL.
